Measured values taken from PubChem BioAssay (NCI).
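Dose response: 5 concentrations. Exposure: 48 h. Format: 96-well plates. Endpoint: linear interpolation; highest concentration if not reached. Here, GI50 denotes the concentration required for 50% inhibition of growth. TGI marks complete inhibition of growth.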

Tests used:
Experiment in all cases: growth of human tumour cells (NCI), 48 h
786-0 renal = system: 786-0 renal
A498 renal = system: A498 renal
A549 NSCLC = system: A549 NSCLC
ACHN renal = system: ACHN renal
BT-549 breast = system: BT-549 breast
CCRF-CEM leukemia = system: CCRF-CEM leukemia
COLO 205 colon = system: COLO 205 colon
EKVX NSCLC = system: EKVX NSCLC
HCC-2998 colon = system: HCC-2998 colon
HCT-116 colon = system: HCT-116 colon
HCT-15 colon = system: HCT-15 colon
HL-60(TB) leukemia = system: HL-60(TB) leukemia
HOP-62 NSCLC = system: HOP-62 NSCLC
HOP-92 NSCLC = system: HOP-92 NSCLC
HS 578T breast = system: HS 578T breast
HT29 colon = system: HT29 colon
IGROV1 ovarian = system: IGROV1 ovarian
K-562 leukemia = system: K-562 leukemia
KM12 colon = system: KM12 colon
LOX IMVI melanoma = system: LOX IMVI melanoma
M14 melanoma = system: M14 melanoma
MALME-3M melanoma = system: MALME-3M melanoma
MCF7 breast = system: MCF7 breast
MDA-MB-231 breast = system: MDA-MB-231 breast
MDA-MB-435 = system: MDA-MB-435
MOLT-4 leukemia = system: MOLT-4 leukemia
NCI-H226 lung = system: NCI-H226 lung
NCI-H23 lung = system: NCI-H23 lung
NCI-H460 lung = system: NCI-H460 lung
NCI-H522 lung = system: NCI-H522 lung
NCI/ADR-RES ovarian = system: NCI/ADR-RES ovarian
OVCAR-3 ovarian = system: OVCAR-3 ovarian
OVCAR-4 ovarian = system: OVCAR-4 ovarian
OVCAR-5 ovarian = system: OVCAR-5 ovarian
OVCAR-8 ovarian = system: OVCAR-8 ovarian
PC-3 prostate = system: PC-3 prostate
RPMI-8226 leukemia = system: RPMI-8226 leukemia
RXF 393 renal = system: RXF 393 renal
SF-268 CNS = system: SF-268 CNS
SF-295 CNS = system: SF-295 CNS
SF-539 CNS = system: SF-539 CNS
SK-MEL-2 melanoma = system: SK-MEL-2 melanoma
SK-MEL-28 melanoma = system: SK-MEL-28 melanoma
SK-MEL-5 melanoma = system: SK-MEL-5 melanoma
SK-OV-3 ovarian = system: SK-OV-3 ovarian
SN12C renal = system: SN12C renal
SNB-19 CNS = system: SNB-19 CNS
SNB-75 CNS = system: SNB-75 CNS
SR leukemia = system: SR leukemia
SW-620 colon = system: SW-620 colon
T-47D breast = system: T-47D breast
TK-10 renal = system: TK-10 renal
U251 CNS = system: U251 CNS
UACC-257 melanoma = system: UACC-257 melanoma
UACC-62 melanoma = system: UACC-62 melanoma
UO-31 renal = system: UO-31 renal

SMILES: CCC(C)[C@H]1OC(=O)[C@H](C(C)C)N(C)C(=O)[C@@H](C(C)C)OC(=O)[C@H](C(C)C)N(C)C(=O)[C@@H](C(C)CC)OC(=O)[C@H](C(C)C)N(C)C1=O (some centres not stated)
- GI50 (786-0 renal): 575 nM
- TGI (786-0 renal): 5390 nM
- GI50 (A498 renal): 390 nM
- TGI (A498 renal): 1170 nM
- GI50 (A549 NSCLC): 514 nM
- TGI (A549 NSCLC): > 16700 nM
- GI50 (ACHN renal): 517 nM
- TGI (ACHN renal): 2960 nM
- GI50 (BT-549 breast): 501 nM
- TGI (BT-549 breast): 1750 nM
- GI50 (CCRF-CEM leukemia): 600 nM
- TGI (CCRF-CEM leukemia): 3040 nM
- GI50 (COLO 205 colon): 341 nM
- TGI (COLO 205 colon): 743 nM
- GI50 (EKVX NSCLC): 554 nM
- TGI (EKVX NSCLC): > 16700 nM
- GI50 (HCC-2998 colon): 846 nM
- TGI (HCC-2998 colon): 8060 nM
- GI50 (HCT-116 colon): 532 nM
- TGI (HCT-116 colon): > 16700 nM
- GI50 (HCT-15 colon): 536 nM
- TGI (HCT-15 colon): 3520 nM
- GI50 (HL-60(TB) leukemia): 383 nM
- TGI (HL-60(TB) leukemia): 851 nM
- GI50 (HOP-62 NSCLC): 491 nM
- TGI (HOP-62 NSCLC): 2420 nM
- GI50 (HOP-92 NSCLC): 379 nM
- TGI (HOP-92 NSCLC): 1050 nM
- GI50 (HS 578T breast): 745 nM
- TGI (HS 578T breast): 6960 nM
- GI50 (HT29 colon): 567 nM
- TGI (HT29 colon): 2160 nM
- GI50 (IGROV1 ovarian): 886 nM
- TGI (IGROV1 ovarian): > 16700 nM
- GI50 (K-562 leukemia): 687 nM
- TGI (K-562 leukemia): > 16700 nM
- GI50 (KM12 colon): 651 nM
- TGI (KM12 colon): > 16700 nM
- GI50 (LOX IMVI melanoma): 562 nM
- TGI (LOX IMVI melanoma): 2140 nM
- GI50 (M14 melanoma): 601 nM
- TGI (M14 melanoma): 2550 nM
- GI50 (MALME-3M melanoma): 458 nM
- TGI (MALME-3M melanoma): 1810 nM
- GI50 (MCF7 breast): 529 nM
- TGI (MCF7 breast): > 16700 nM
- GI50 (MDA-MB-231 breast): 520 nM
- TGI (MDA-MB-231 breast): 1630 nM
- GI50 (MDA-MB-435): 619 nM
- TGI (MDA-MB-435): 7650 nM
- GI50 (MOLT-4 leukemia): 793 nM
- TGI (MOLT-4 leukemia): 2850 nM
- GI50 (NCI-H226 lung): 647 nM
- TGI (NCI-H226 lung): 2730 nM
- GI50 (NCI-H23 lung): 548 nM
- TGI (NCI-H23 lung): > 16700 nM
- GI50 (NCI-H460 lung): 570 nM
- TGI (NCI-H460 lung): 3350 nM
- GI50 (NCI-H522 lung): 429 nM
- TGI (NCI-H522 lung): 1650 nM
- GI50 (NCI/ADR-RES ovarian): 510 nM
- TGI (NCI/ADR-RES ovarian): 5900 nM
- GI50 (OVCAR-3 ovarian): 694 nM
- TGI (OVCAR-3 ovarian): > 16700 nM
- GI50 (OVCAR-4 ovarian): 632 nM
- TGI (OVCAR-4 ovarian): > 16700 nM
- GI50 (OVCAR-5 ovarian): 537 nM
- TGI (OVCAR-5 ovarian): 6120 nM
- GI50 (OVCAR-8 ovarian): 610 nM
- TGI (OVCAR-8 ovarian): > 16700 nM
- GI50 (PC-3 prostate): 588 nM
- TGI (PC-3 prostate): 9930 nM
- GI50 (RPMI-8226 leukemia): 413 nM
- TGI (RPMI-8226 leukemia): 1020 nM
- GI50 (RXF 393 renal): 420 nM
- TGI (RXF 393 renal): 2570 nM
- GI50 (SF-268 CNS): 726 nM
- TGI (SF-268 CNS): 4260 nM
- GI50 (SF-295 CNS): 453 nM
- TGI (SF-295 CNS): 1530 nM
- GI50 (SF-539 CNS): 638 nM
- TGI (SF-539 CNS): 2710 nM
- GI50 (SK-MEL-2 melanoma): 533 nM
- TGI (SK-MEL-2 melanoma): 2190 nM
- GI50 (SK-MEL-28 melanoma): 952 nM
- TGI (SK-MEL-28 melanoma): 4450 nM
- GI50 (SK-MEL-5 melanoma): 357 nM
- TGI (SK-MEL-5 melanoma): 783 nM
- GI50 (SK-OV-3 ovarian): 379 nM
- TGI (SK-OV-3 ovarian): 1010 nM
- GI50 (SN12C renal): 544 nM
- TGI (SN12C renal): 2160 nM
- GI50 (SNB-19 CNS): 616 nM
- TGI (SNB-19 CNS): 3890 nM
- GI50 (SNB-75 CNS): 507 nM
- TGI (SNB-75 CNS): 2820 nM
- GI50 (SR leukemia): 685 nM
- TGI (SR leukemia): 3620 nM
- GI50 (SW-620 colon): 616 nM
- TGI (SW-620 colon): > 16700 nM
- GI50 (T-47D breast): 472 nM
- TGI (T-47D breast): 1470 nM
- GI50 (TK-10 renal): 543 nM
- TGI (TK-10 renal): 3970 nM
- GI50 (U251 CNS): 560 nM
- TGI (U251 CNS): 2330 nM
- GI50 (UACC-257 melanoma): 427 nM
- TGI (UACC-257 melanoma): 1560 nM
- GI50 (UACC-62 melanoma): 710 nM
- TGI (UACC-62 melanoma): 2980 nM
- GI50 (UO-31 renal): 422 nM
- TGI (UO-31 renal): 1710 nM
